Assay [1] deals with Protein mono-ADP-ribosyltransferase PARP6 (Homo sapiens, UniProt Q2NL67). Nature of the assay: Inhibition of PARP6 (unknown origin).
Assay [2] has as its target Poly [ADP-ribose] polymerase 2 (Homo sapiens, UniProt Q9UGN5). Nature of the assay: Inhibition of PARP2 (unknown origin).
The target of assay [3] is T1, Protein mono-ADP-ribosyltransferase TIPARP (Homo sapiens) (UniProt Q7Z3E1).
T1 sequence (whole entry): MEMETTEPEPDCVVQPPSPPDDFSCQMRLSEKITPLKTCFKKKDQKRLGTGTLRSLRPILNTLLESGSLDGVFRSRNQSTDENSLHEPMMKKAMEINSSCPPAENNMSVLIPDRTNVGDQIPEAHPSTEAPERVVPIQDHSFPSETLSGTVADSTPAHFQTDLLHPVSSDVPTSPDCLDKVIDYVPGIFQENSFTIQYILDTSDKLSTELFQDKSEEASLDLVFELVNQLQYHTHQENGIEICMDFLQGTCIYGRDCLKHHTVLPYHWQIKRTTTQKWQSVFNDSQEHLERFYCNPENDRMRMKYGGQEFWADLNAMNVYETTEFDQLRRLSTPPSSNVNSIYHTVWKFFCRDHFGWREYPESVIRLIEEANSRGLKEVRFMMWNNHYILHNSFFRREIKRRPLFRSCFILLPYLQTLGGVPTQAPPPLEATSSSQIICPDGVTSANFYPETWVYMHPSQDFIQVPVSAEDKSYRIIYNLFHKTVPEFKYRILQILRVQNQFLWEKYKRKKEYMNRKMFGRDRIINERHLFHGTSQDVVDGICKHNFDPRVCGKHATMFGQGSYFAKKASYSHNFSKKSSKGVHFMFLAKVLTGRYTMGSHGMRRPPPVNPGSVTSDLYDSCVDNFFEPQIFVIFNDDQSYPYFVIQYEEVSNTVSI
Nature of the assay: Inhibition of PARP7 (unknown origin) at 10 uM relative to control.

The target of assay [4] is T2, Protein mono-ADP-ribosyltransferase PARP11 (Homo sapiens) (UniProt Q9NR21).
T2 sequence (whole entry): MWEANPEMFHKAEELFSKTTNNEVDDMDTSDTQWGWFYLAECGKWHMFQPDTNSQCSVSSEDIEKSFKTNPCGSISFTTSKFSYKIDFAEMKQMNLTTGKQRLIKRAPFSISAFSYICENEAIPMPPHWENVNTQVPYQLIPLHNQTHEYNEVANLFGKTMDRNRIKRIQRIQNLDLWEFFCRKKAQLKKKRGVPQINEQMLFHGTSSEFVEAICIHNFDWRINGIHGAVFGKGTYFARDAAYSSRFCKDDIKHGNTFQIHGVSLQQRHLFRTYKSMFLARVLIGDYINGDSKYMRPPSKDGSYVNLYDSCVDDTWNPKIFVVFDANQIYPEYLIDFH
Nature of the assay: Inhibition of PARP11 (unknown origin) at 10 uM relative to control.

Assay [5] has as its target T3, Poly [ADP-ribose] polymerase tankyrase-2 (Homo sapiens, UniProt Q9H2K2).
T3 sequence (Q9H2K2 whole entry): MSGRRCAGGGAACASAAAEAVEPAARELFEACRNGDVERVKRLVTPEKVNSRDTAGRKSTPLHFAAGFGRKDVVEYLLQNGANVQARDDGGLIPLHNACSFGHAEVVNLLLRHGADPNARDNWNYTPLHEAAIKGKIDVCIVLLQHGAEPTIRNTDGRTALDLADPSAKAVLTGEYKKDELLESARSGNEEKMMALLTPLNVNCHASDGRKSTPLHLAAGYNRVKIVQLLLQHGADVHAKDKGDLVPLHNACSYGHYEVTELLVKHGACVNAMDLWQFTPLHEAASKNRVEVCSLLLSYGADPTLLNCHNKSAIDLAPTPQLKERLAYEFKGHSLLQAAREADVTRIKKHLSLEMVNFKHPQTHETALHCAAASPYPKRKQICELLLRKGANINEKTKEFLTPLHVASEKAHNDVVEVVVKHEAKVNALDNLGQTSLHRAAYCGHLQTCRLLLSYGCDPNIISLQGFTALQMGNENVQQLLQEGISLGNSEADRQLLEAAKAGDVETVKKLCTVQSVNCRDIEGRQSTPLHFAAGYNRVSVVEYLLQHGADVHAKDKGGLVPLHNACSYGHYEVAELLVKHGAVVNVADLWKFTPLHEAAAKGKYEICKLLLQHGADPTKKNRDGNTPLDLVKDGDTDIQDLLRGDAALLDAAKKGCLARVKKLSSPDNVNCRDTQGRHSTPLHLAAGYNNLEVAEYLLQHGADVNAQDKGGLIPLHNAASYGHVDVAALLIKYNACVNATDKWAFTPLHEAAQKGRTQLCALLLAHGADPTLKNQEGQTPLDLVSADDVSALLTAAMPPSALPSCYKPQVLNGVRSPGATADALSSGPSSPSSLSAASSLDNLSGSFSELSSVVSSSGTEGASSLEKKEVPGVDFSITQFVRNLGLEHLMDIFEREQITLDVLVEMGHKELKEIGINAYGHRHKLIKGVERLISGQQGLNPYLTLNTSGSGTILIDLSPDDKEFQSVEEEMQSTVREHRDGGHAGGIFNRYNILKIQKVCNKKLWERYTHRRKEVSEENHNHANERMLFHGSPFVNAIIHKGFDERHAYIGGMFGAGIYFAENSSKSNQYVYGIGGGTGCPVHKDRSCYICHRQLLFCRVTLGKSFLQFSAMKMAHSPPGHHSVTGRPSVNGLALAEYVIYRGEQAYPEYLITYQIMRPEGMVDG
Nature of the assay: Inhibition of auto-PARsylation of GST-tagged TNKS2 PARP domain (947 to 1162) (unknown origin) expressed in Escherichia coli BL21(DE3) after 2 hrs by LC/MS analysis.

For assay [6], the species on record is Homo sapiens. Nature of the assay: Selectivity ratio of IC50 for TNKS1 (unknown origin) to IC50 for TNKS2 PARP domain (947 to 1162) (unknown origin).
The species named for assay [7] is Homo sapiens. Nature of the assay: Selectivity ratio of IC50 for PARP6 (unknown origin) to IC50 for TNKS2 PARP domain (947 to 1162) (unknown origin).
The species named for assay [8] is Homo sapiens. Nature of the assay: Selectivity ratio of IC50 for PARP3 (unknown origin) to IC50 for TNKS2 PARP domain (947 to 1162) (unknown origin).

Results on 1 compound are retold here after ChEMBL document CHEMBL2380224, “Fragment-based ligand design of novel potent inhibitors of tankyrases” (J Med Chem, 2013).

In general, IC50 refers to the concentration at which inhibition is half-maximal. The term inhibition denotes the drop in the measured response relative to a control, in per cent. The low end stands for little suppression, the high end for strong suppression.

Sequence of Poly [ADP-ribose] polymerase 2 (Q9UGN5 whole entry): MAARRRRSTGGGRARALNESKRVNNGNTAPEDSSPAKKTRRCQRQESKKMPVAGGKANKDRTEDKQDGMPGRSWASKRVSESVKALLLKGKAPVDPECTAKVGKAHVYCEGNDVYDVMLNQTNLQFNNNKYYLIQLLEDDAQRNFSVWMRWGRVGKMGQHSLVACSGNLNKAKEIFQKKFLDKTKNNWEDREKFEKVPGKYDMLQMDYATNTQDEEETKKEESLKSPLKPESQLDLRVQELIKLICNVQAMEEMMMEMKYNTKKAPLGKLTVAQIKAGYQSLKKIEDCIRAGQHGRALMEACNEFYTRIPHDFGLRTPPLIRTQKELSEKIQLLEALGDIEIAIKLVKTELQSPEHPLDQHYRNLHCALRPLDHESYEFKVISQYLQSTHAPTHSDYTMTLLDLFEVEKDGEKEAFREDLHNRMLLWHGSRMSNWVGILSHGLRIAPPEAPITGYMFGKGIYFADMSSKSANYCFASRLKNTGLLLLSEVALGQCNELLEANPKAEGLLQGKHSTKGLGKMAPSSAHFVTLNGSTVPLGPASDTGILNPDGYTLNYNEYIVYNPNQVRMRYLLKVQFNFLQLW
Sequence of Protein mono-ADP-ribosyltransferase PARP6 (Q2NL67 whole entry): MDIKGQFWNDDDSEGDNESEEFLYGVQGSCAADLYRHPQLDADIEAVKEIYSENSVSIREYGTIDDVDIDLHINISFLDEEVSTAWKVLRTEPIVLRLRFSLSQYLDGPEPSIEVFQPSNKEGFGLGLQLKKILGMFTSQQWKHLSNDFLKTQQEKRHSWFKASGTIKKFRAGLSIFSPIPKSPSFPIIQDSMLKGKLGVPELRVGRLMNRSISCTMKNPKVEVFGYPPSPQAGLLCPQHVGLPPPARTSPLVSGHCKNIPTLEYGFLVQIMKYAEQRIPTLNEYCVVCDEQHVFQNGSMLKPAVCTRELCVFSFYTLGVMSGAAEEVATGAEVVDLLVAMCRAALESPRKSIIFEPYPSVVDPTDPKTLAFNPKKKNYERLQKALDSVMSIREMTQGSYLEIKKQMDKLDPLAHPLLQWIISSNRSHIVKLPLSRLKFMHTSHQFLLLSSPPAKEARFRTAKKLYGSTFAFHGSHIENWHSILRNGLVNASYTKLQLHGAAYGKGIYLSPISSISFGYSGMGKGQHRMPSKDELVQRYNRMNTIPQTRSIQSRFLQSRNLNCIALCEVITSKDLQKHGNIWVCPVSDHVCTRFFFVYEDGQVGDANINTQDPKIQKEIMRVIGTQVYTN

With `Cc1cc(=O)[nH]c2cc(-c3ccccc3F)ccc12`, the values for the IC50 in assay [1], in assay [2] and in assay [5] were greater than 10 µM, greater than 10 µM and 0.052 µM, respectively. The inhibition is 37% in assay [3] and 23% in assay [4]. For the same compound, the results for the Ratio IC50 in the assay listed under Homo sapiens [6], in the assay filed under Homo sapiens [7] and in the assay filed under Homo sapiens [8] were 16.5, greater than 100 and greater than 100, respectively.
